The text below walks through data of ChEMBL document CHEMBL1833802, “Substitution of the GalNAc-α-O-Thr¹¹ residue in drosocin with O-linked glyco-peptoid residue: effect on antibacterial activity and conformational change” (2011).

The test system of experiment [1] is Escherichia coli. The experiment is described as follows: Antibacterial activity against clinical isolate Escherichia coli KCTC 1682 after overnight incubation by radial diffusion assay. Format: functional, organism-based.
For experiment [2], the system named is Escherichia coli. Description: Antibacterial activity against clinical isolate Escherichia coli KCTC 1682 at 50 uM after overnight incubation by radial diffusion assay relative to drosocin D. The experiment is classed as functional.

Active and inactive are the calls of the source. The rule behind the calls is not given here. Numbered stars: 1 amine (or outer) side, 2 acyl side, 3 side chain; on linkers, the order of the positions; unused ones are H or OH. Square brackets hold non-standard residues; d marks the D form. Peptide text beside a SMILES is read from it. X1 = CC(=O)N[C@H]1[C@@H](O[C@@H](C)CN(CC(=O)[*:2])[*:1])O[C@H](CO)[C@H](O)[C@@H]1O; X2 = CC(=O)N[C@H]1[C@@H](O[C@H](C)CN(CC(=O)[*:2])[*:1])O[C@H](CO)[C@H](O)[C@@H]1O; X3 = CC(=O)N[C@H]1[C@@H](OCCN(CC(=O)[*:2])[*:1])O[C@H](CO)[C@H](O)[C@@H]1O

Regarding `CC[C@H](C)[C@H](NC(=O)[C@@H]1CCCN1C(=O)[C@H](CCCNC(=N)N)NC(=O)[C@@H]1CCCN1C(=O)[C@H](Cc1cnc[nH]1)NC(=O)[C@H](CO)NC(=O)CN(C[C@H](C)O[C@H]1O[C@H](CO)[C@H](O)[C@H](O)[C@H]1NC(C)=O)C(=O)[C@H](C)NC(=O)[C@H](CCCNC(=N)N)NC(=O)[C@@H]1CCCN1C(=O)[C@@H](NC(=O)[C@H](Cc1ccc(O)cc1)NC(=O)[C@@H]1CCCN1C(=O)[C@H](CCCNC(=N)N)NC(=O)[C@@H]1CCCN1C(=O)[C@H](CCCCN)NC(=O)CN)[C@@H](C)O)C(=O)N[C@@H](CCCNC(=N)N)C(=O)N[C@H](C(=O)O)C(C)C` (H-GKPRPYTPRA[X1]SHPRPIRV-OH), the Activity result in the experiment on Escherichia coli [1] was “Dose-dependent effect”. In the experiment on Escherichia coli [2], the “fold change (FC)” value amounted to 6.
With `CC[C@H](C)[C@H](NC(=O)[C@@H]1CCCN1C(=O)[C@H](CCCNC(=N)N)NC(=O)[C@@H]1CCCN1C(=O)[C@H](Cc1cnc[nH]1)NC(=O)[C@H](CO)NC(=O)CN(C[C@@H](C)O[C@H]1O[C@H](CO)[C@H](O)[C@H](O)[C@H]1NC(C)=O)C(=O)[C@H](C)NC(=O)[C@H](CCCNC(=N)N)NC(=O)[C@@H]1CCCN1C(=O)[C@@H](NC(=O)[C@H](Cc1ccc(O)cc1)NC(=O)[C@@H]1CCCN1C(=O)[C@H](CCCNC(=N)N)NC(=O)[C@@H]1CCCN1C(=O)[C@H](CCCCN)NC(=O)CN)[C@@H](C)O)C(=O)N[C@@H](CCCNC(=N)N)C(=O)N[C@H](C(=O)O)C(C)C` (H-GKPRPYTPRA[X2]SHPRPIRV-OH), the outcome with Escherichia coli [1] was Active.
On the same count and under the same terms, the result for `CC[C@H](C)[C@H](NC(=O)[C@@H]1CCCN1C(=O)[C@H](CCCNC(=N)N)NC(=O)[C@@H]1CCCN1C(=O)[C@H](Cc1cnc[nH]1)NC(=O)[C@H](CO)NC(=O)CN(CCO[C@H]1O[C@H](CO)[C@H](O)[C@H](O)[C@H]1NC(C)=O)C(=O)[C@H](C)NC(=O)[C@H](CCCNC(=N)N)NC(=O)[C@@H]1CCCN1C(=O)[C@@H](NC(=O)[C@H](Cc1ccc(O)cc1)NC(=O)[C@@H]1CCCN1C(=O)[C@H](CCCNC(=N)N)NC(=O)[C@@H]1CCCN1C(=O)[C@H](CCCCN)NC(=O)CN)[C@@H](C)O)C(=O)N[C@@H](CCCNC(=N)N)C(=O)N[C@H](C(=O)O)C(C)C` (H-GKPRPYTPRA[X3]SHPRPIRV-OH) reads “Active”.
